“And” between values parts separate entries of the source, which are not always exact repeats. Equal entries are not always repeated.
Columns and labels:
[1] = system: A549 cells; test: CCK-8 antiproliferation assay, A549; details: for Inhibitory efficacy: A549 cells; for IC50: A549, 48 h, read-out: IC50 (μM) A549, CCK-8, 48 h, average ± SD of three independent experiments
[2] = system: H1975 cells; test: CCK-8 antiproliferation assay, H1975; details: for Inhibitory efficacy: H1975 cells; for IC50: NCI-H1975, 48 h, read-out: IC50 (μM) H1975, CCK-8, 48 h, average ± SD of three independent experiments
[3] = system: H460 cells; test: CCK-8 antiproliferation assay, H460; details: for Inhibitory efficacy: H460 cells; for IC50: NCI-H460, 48 h, read-out: IC50 (μM) H460, CCK-8, 48 h, average ± SD of three independent experiments
[4] = system: PC-9 cells; test: CCK-8 antiproliferation assay, PC-9; details: for IC50: PC-9, 48 h, read-out: IC50 (μM) PC-9; for inhibition at 4 µM: PC-9, read-out: Inhibitory efficacy, PC-9, 4uM, single repeats (Repeat 1-3), given as fraction; for Inhibitory efficacy: single repeats (Repeat 1-3), given as fraction
[5] = molecular target: wild-type EGFR (Homo sapiens, UniProt P00533); test: EGFR kinase assay (ELISA); details: for IC50: IC50 (μM) EGFR, ELISA, 3 μmol/L ATP; for A450: raw ELISA absorbance
Sequence of wild-type EGFR (P00533 25-1210): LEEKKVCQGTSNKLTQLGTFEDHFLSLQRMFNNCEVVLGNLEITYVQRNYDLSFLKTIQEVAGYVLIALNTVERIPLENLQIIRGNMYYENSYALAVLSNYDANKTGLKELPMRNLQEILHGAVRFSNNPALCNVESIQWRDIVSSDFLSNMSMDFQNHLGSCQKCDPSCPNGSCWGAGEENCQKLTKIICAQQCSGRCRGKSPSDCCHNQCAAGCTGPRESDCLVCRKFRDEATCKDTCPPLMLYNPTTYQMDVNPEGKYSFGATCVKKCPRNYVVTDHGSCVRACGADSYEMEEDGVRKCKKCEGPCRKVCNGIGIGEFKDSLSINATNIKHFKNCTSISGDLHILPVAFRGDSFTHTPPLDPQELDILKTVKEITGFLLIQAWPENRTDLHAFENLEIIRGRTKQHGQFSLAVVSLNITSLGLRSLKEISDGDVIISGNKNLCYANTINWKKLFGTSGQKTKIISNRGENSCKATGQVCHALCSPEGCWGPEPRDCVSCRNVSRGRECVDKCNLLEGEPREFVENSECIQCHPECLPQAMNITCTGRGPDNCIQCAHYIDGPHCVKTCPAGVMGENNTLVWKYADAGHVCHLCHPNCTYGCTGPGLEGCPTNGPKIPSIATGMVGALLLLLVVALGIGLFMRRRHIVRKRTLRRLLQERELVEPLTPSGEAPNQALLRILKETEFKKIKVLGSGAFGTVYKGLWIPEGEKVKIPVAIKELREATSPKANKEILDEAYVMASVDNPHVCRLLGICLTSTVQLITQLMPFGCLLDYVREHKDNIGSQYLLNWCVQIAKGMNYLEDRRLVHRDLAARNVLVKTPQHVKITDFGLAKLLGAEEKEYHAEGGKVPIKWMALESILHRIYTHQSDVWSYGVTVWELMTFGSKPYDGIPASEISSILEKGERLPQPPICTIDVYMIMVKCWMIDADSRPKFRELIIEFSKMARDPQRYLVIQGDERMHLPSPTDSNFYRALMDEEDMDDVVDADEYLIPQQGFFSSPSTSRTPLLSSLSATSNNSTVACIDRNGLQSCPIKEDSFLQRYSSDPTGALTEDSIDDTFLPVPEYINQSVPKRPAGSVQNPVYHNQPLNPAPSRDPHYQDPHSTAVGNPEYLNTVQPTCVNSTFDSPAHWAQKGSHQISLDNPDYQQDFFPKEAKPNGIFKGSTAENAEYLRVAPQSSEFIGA

[6] = 4uM, given as fraction, Repeat 1-3
[7] = 8uM, given as fraction, Repeat 1-3
[8] = 16uM, given as fraction, Repeat 1-3
[9] = Homo sapiens, NCI-H1975, read-out: Inhibitory efficacy, H1975 cells, 8uM, given as fraction, Repeat 1-3
[10] = Homo sapiens, NCI-H1975, read-out: Inhibitory efficacy, H1975 cells, 16uM, given as fraction, Repeat 1-3
[11] = 2uM, given as fraction, Repeat 1-3
[12] = Homo sapiens, NCI-H460, read-out: Inhibitory efficacy, H460 cells, 2uM, given as fraction, Repeat 1-3
[13] = concentration 0.03 nM, one value per replicate column, 3e-05 µM
[14] = concentration 0.3 nM, one value per replicate column
[15] = concentration 0.3 nM, one value per replicate column, 0.0003 µM
[16] = concentration 3 nM, one value per replicate column
[17] = concentration 3 nM, one value per replicate column, 0.003 µM
[18] = concentration 30 nM, one value per replicate column
[19] = concentration 30 nM, one value per replicate column, 0.03 µM
[20] = concentration 300 nM, one value per replicate column
[21] = concentration 300 nM, one value per replicate column, 0.3 µM
[22] = concentration 3000 nM, one value per replicate column
[23] = concentration 3000 nM, one value per replicate column, 3 µM
[24] = concentration 30000 nM, one value per replicate column
[25] = concentration 30000 nM, one value per replicate column, 30 µM

COCCOc1cc2ncnc(Nc3cccc(-c4cn(Cc5ccccc5I)nn4)c3)c2cc1OCCOC [e2, [6,7-Bis-(2-methoxy-ethoxy)-quinazolin-4-yl]-{3-[1-(2-iodo-benzyl)-1H-[1,2,3]triazol-4-yl]-phenyl}-amine]
Inhibitory efficacy [1, 6]: 0.4029 and 0.476
Inhibitory efficacy [1, 7]: 0.4092 and 0.465
Inhibitory efficacy [1, 8]: 0.5413 and 0.5397
IC50 ([1]; Homo sapiens): 11.8 ± 1.7 µM
inhibition at 4 µM ([1]; Homo sapiens, A549, read-out: Inhibitory efficacy, A549 cells, 4uM, given as fraction, Repeat 1-3): 29.4%
inhibition at 8 µM ([1]; Homo sapiens, A549, read-out: Inhibitory efficacy, A549 cells, 8uM, given as fraction, Repeat 1-3): 41.8%
inhibition at 16 µM ([1]; Homo sapiens, A549, read-out: Inhibitory efficacy, A549 cells, 16uM, given as fraction, Repeat 1-3): 50.4%
Inhibitory efficacy [2, 7]: 0.3905 and 0.2825
Inhibitory efficacy [2, 8]: 0.5504 and 0.4649
IC50 ([2]; Homo sapiens): 15.7 ± 2.76 µM
inhibition at 8 µM [2, 9]: 37.6%
inhibition at 16 µM [2, 10]: 48.4%
Inhibitory efficacy ([3]; 1uM, given as fraction, Repeat 1-3): 0.124 and 0.2238
Inhibitory efficacy [3, 11]: 0.2881 and 0.2336
Inhibitory efficacy [3, 6]: 0.2321 and 0.3138
Inhibitory efficacy [3, 7]: 0.5164 and 0.5844
IC50 ([3]; Homo sapiens): 9.08 ± 2.81 µM
inhibition at 1 µM ([3]; Homo sapiens, NCI-H460, read-out: Inhibitory efficacy, H460 cells, 1uM, given as fraction, Repeat 1-3): 11.6%
inhibition at 2 µM [3, 12]: 33.4%
inhibition at 4 µM ([3]; Homo sapiens, NCI-H460, read-out: Inhibitory efficacy, H460 cells, 4uM, given as fraction, Repeat 1-3): 16%
inhibition at 8 µM ([3]; Homo sapiens, NCI-H460, read-out: Inhibitory efficacy, H460 cells, 8uM, given as fraction, Repeat 1-3): 46.6%
melting point: 93 to 96 °C
IC50 ([4]; Homo sapiens): 11.6 ± 3.64 µM
inhibition at 1 µM ([4]; Homo sapiens, PC-9, read-out: Inhibitory efficacy, PC-9, 1uM, single repeats (Repeat 1-3), given as fraction): 7.63%
inhibition at 2 µM ([4]; Homo sapiens, PC-9, read-out: Inhibitory efficacy, PC-9, 2uM, single repeats (Repeat 1-3), given as fraction): 20.6%
inhibition at 4 µM ([4]; Homo sapiens): 28.9%
inhibition at 8 µM ([4]; Homo sapiens, PC-9, read-out: Inhibitory efficacy, PC-9, 8uM, single repeats (Repeat 1-3), given as fraction): 36.1%
inhibition at 16 µM ([4]; Homo sapiens, PC-9, read-out: Inhibitory efficacy, PC-9, 16uM, single repeats (Repeat 1-3), given as fraction): 49.1%
Inhibitory efficacy ([4]; PC-9, 1uM, 1 µM): 0.07634 and 0.0877
Inhibitory efficacy ([4]; PC-9, 2uM, 2 µM): 0.1331 and 0.1085
Inhibitory efficacy ([4]; PC-9, 4uM, 4 µM): 0.3461 and 0.3328
Inhibitory efficacy ([4]; PC-9, 8uM, 8 µM): 0.365 and 0.4549
Inhibitory efficacy ([4]; PC-9, 16uM, 16 µM): 0.6025 and 0.6224
IC50 [5]: 0.32 µM
inhibition at 100 fM ([5]; concentration 0.0001 nM (reference for normalisation), one value per replicate column): 0%
Inhibition [5, 13]: 2.548 and 6.494
inhibition at 0.0003 µM [5, 14]: 10.8%
Inhibition [5, 15]: 7.792
inhibition at 0.003 µM [5, 16]: 31.8%
Inhibition [5, 17]: 24.6753
inhibition at 0.03 µM [5, 18]: 31.8%
Inhibition [5, 19]: 27.2727
inhibition at 0.3 µM [5, 20]: 49%
Inhibition [5, 21]: 35.7143
inhibition at 3 µM [5, 22]: 63.7%
Inhibition [5, 23]: 56.4935
inhibition at 30 µM [5, 24]: 97.5%
Inhibition [5, 25]: 98.0519
A450 ([5]; concentration 0.0001 nM): 0.404 and 0.396
A450 ([5]; concentration 0.03 nM): 0.4 and 0.386
A450 ([5]; concentration 0.3 nM): 0.387 and 0.384
A450 ([5]; concentration 3 nM): 0.354 and 0.358
A450 ([5]; concentration 30 nM): 0.354
A450 ([5]; concentration 300 nM): 0.327 and 0.341
A450 ([5]; concentration 3000 nM): 0.304 and 0.309
A450 ([5]; concentration 30000 nM): 0.251 and 0.245

COCCOc1cc2ncnc(Nc3cccc(-c4cn(Cc5ccccc5)nn4)c3)c2cc1OCCOC [e1, [3-(1-Benzyl-1H-[1,2,3]triazol-4-yl)-phenyl]-[6,7-bis-(2-methoxy-ethoxy)-quinazolin-4-yl]-amine]
IC50 ([1]; Homo sapiens): > 100 µM
Inhibitory efficacy [2, 11]: 0.214 and 0.1313
Inhibitory efficacy [2, 6]: 0.2001 and 0.2011
Inhibitory efficacy [2, 7]: 0.2439 and 0.3137
Inhibitory efficacy [2, 8]: 0.3018 and 0.3516
IC50 ([2]; Homo sapiens): > 100 µM
inhibition at 2 µM ([2]; Homo sapiens, NCI-H1975, read-out: Inhibitory efficacy, H1975 cells, 2uM, given as fraction, Repeat 1-3): 24.3%
inhibition at 4 µM ([2]; Homo sapiens, NCI-H1975, read-out: Inhibitory efficacy, H1975 cells, 4uM, given as fraction, Repeat 1-3): 28.4%
inhibition at 8 µM [2, 9]: 25.2%
inhibition at 16 µM [2, 10]: 37.9%
Inhibitory efficacy [3, 11]: 0.09593 and 0.09213
IC50 ([3]; Homo sapiens): > 100 µM
inhibition at 2 µM [3, 12]: 11.9%
melting point: 89 to 92 °C
IC50 ([4]; Homo sapiens): > 100 µM
inhibition at 4 µM ([4]; Homo sapiens): 13.4%
Inhibitory efficacy ([4]; PC-9, 4uM, 4 µM): 0.07898 and 0.104
IC50 [5]: 1.34 µM
Inhibition [5, 13]: 3.106 and 6.667
inhibition at 0.0003 µM [5, 14]: 14.9%
Inhibition [5, 15]: 12.7273
inhibition at 0.003 µM [5, 16]: 15.5%
Inhibition [5, 17]: 27.2727
inhibition at 0.03 µM [5, 18]: 28%
Inhibition [5, 19]: 34.5455
inhibition at 0.3 µM [5, 20]: 34.2%
Inhibition [5, 21]: 43.6364
inhibition at 3 µM [5, 22]: 43.5%
Inhibition [5, 23]: 45.4545
inhibition at 30 µM [5, 24]: 73.9%
Inhibition [5, 25]: 80.6061
A450 ([5]; concentration 0.0001 nM): 0.408 and 0.407
A450 ([5]; concentration 0.03 nM): 0.403 and 0.396
A450 ([5]; concentration 0.3 nM): 0.384 and 0.386
A450 ([5]; concentration 3 nM): 0.383 and 0.362
A450 ([5]; concentration 30 nM): 0.363 and 0.35
A450 ([5]; concentration 300 nM): 0.353 and 0.335
A450 ([5]; concentration 3000 nM): 0.338 and 0.332
A450 ([5]; concentration 30000 nM): 0.289 and 0.274

From PMC8776995 (Frontiers in Chemistry, 2022)
